US12329788B2, “Synbiotic compositions” (Evonik Operations GmbH, priority 2018, dated 2025)
Where a SMILES comes first, the peptide text is derived from it.

What was measured:
Clostridium XI cluster = assay: i-screen microbiota composition by 16S rRNA V4 sequencing, Clostridium XI; type: cell-based, human; details: for Clostridium_XI relative abundance: 24 h SIEM, amino acids 3.5 mM, dipeptides 7 mM; for effect on Clostridia XI group: Example 8, dipeptides 7 mM, 0% O2
Text: (§1) To determine the effect of the probiotic strains Bacillus subtilis DSM 32315, Bacillus subtilis DSM 32540, Bacillus licheniformis DSM 32314 and Bacillus amyloliquefaciens CECT 5940 on adult colonic microbiota, an intestinal screening model was used (i-screen, TNO, the Netherlands). Therefore the i-screen model was inoculated with standard human adult fecal microbiota material, which consisted of pooled fecal donations from 6 healthy adult volunteers (Caucasian, European lifestyle and nutrition). The fecal material was mixed and grown in a fed-batch fermenter for 40 hours to create a standardized microbiota as described previously. These standard adult gut microbiota sets were stored at −80° C. in 12% glycerol.
(§2) The intestinal microbiota was cultured in vitro in modified standard ileal efflux medium (SIEM), the composition of which was described by and modified as follows: 0.047 g/l pectin, 0.047 g/l xylan, 0.047 g/l arabinogalactan, 0.047 g/l amylopectin, 0.392 g/l starch, 24.0 g/l casein, 24.0 Bacto pepton, 0.4 ox-bile and 0.2 g/l cysteine. All components were supplied by Trititium Microbiology (Veldhoven, The Netherlands). The pH of the medium was adjusted to 5.8.
For the i-screen fermentations, the precultured standardized fecal inoculum was diluted 50 times in 1350 μl modified SIEM. All experiments have been carried out in triplicates. The strains Bacillus subtilis (DSM 32315), Bacillus subtilis DSM 32540, Bacillus licheniformis DSM 32314 and Bacillus amyloliquefaciens CECT 5940 were precultured separately in 50 ml LBKelly medium, for about 16 h. Incubation was done in shaking flasks at 37° C. under aerobic conditions. After incubation, bacterial density was determined by optical density measurement at 600 nm. A final stock solution of 1×10^10 cells/ml was prepared in 1 ml buffer solution (0.1 mM MES pH 6). […]
DNA extraction for the sequencing of 16S rRNA coding genes was performed as described by Ladirat et al. (2013) with some minor modifications. Approximately 100 μl of the culture materials were added to the wells of a 96 well plate containing per well 300 μl of lysis buffer (Mag Mini DNA Isolation Kit, LGC ltd, UK), 500 μl zirconium beads (0.1 mm; BioSpec products, Bartlesville, OK, USA) and 500 μl of phenol saturated with Tris-HCI (pH 8.0; Carl Roth GMBH, Germany). The 96 well plate was placed in a Mini-BeadBeater-96 (BioSpec products, Bartlesville, Okla, USA) for 2 min at 2100 oscillations/min. DNA was subsequently purified using the Agowa Mag Mini DNA Isolation Kit according to the manufacturer recommendations. Extracted DNA was eluted in a final volume of 60 μl buffer.
The microbiota composition was analyzed by 16S rRNA gene amplicon sequencing of the V4 Hypervariable Region. This was Achieved Through a Series of Steps:
Subsequently, PCR amplicons of the V4 hypervariable region of the 16S rRNA gene were generated for the individual samples by amplification of […] of DNA as described by (2013), using F515/R806 primers. Primers included Illumina adapters and a unique 8-nt sample index sequence key. A mock control was included for technical quality control. The amount of amplified DNA per sample was quantified using the dsDNA 910 Reagent Kit on the Fragment Analyzer (Advanced Analytical). The amplicon libraries were pooled in equimolar amounts and purified from 1,2% agarose gel using the Gel Extraction Kit (Qiagen). The Library was quantified using the Quant-iT™ PicoGreen® dsDNA Assay Kit (Thermo Fisher Scientific). Paired-end sequencing of amplicons was conducted on the Illumina MiSeq platform (Illumina, Eindhoven, The Netherlands).
The sequence data was processed with Mothur v.1.36.1 [26] in line with the mothur MiSeq SOP [24].

[1] = infused, post-operative anaesthetized dogs; cited from earlier work
human gut microbiota = assay: lactate and short-chain fatty acid production in i-screen with human gut microbiota; type: cell-based; details: 24 h, amino acids 3.5 mM, dipeptides 7 mM
Text: as §1, §2
For the i-screen fermentations, the precultured standardized fecal inoculum was diluted 50 times in 1350 μl modified SIEM. All experiments have been carried out in triplicates. The strains Bacillus subtilis (DSM 32315), Bacillus subtilis DSM 32540, Bacillus licheniformis DSM 32314 and Bacillus amyloliquefaciens CECT 5940 were precultured separately in 50 ml LBKelly medium, for about 16 h. Incubation was done in shaking flasks at 37° C. under aerobic conditions. After incubation, bacterial density was determined by optical density measurement at 600 nm. A final stock solution of 1×10^10 cells/ml was prepared in 1 ml buffer solution (0.1 mM MES pH 6). The suspension of each strain was introduced into the i-screen to a final level of about 10^9 cells/ml, respectively
The i-screen incubation was performed under following gas conditions: 0.2% O2, 0.2% CO2, 10% H2, 89.6% N2.
The effect of the combination of different probiotic strains together with glutamine, or glutamine- or glutamic acid-containing dipeptides containing peptides on the n-butyrate production of the microbial community was analyzed for the strain B. subtilis (DSM 32315) as described in example 1 and 5. The single amino acids were added to a concentration of 3.5 mM and the dipeptides to a concentration of 7 mM.
The effects of the combination of different probiotic strains together with glutamine, or glutamine- or glutamic acid-containing dipeptides containing peptides on the n-butyrate production of the microbial community were analyzed for the strains B. licheniformis (DSM 32314) and B. amyloliquefaciens (CECT 5940) as described in example 1, 5, and 10. The single amino acids were added to a concentration of 3.5 mM and the dipeptides to a concentration of 7 mM.

gut microbiota = details: oral supplementation, overweight humans; cited from earlier work
[2] = oral supplementation, guinea-pigs treated with methotrexate; cited from earlier work
[3] = microbiota + CECT 5940 (first group so headed, r13-r15)
[4] = microbiota + CECT 5940 (second group so headed, r16-r18)
[5] = in combination with B. licheniformis (DSM 32314)
[6] = in combination with B. subtilis (DSM 32315)

| Compound | Clostridium_XI relative abundance (Clostridium XI cluster; [3]) | Clostridium_XI relative abundance (Clostridium XI cluster; [4]) | Clostridium_XI relative abundance (Clostridium XI cluster; microbiota + DSM 32315) | Clostridium_XI relative abundance (Clostridium XI cluster; microbiota, no probiotic cells) | effect on Clostridia XI group (Clostridium XI cluster) | extraction of the amino acids by skeletal muscle [1] | synergy on n-butyrate concentration (human gut microbiota; [5]) | synergy on n-butyrate concentration (human gut microbiota; [6]) | Firmicutes to Bacteriodetes ratio (gut microbiota) | mortality [2] | synergy on n-butyrate concentration (human gut microbiota; in combination with B. amyloliquefaciens (CECT 5940)) |
| --- | --- | --- | --- | --- | --- | --- | --- | --- | --- | --- | --- |
| CC(=O)N[C@@H](C)C(=O)N[C@@H](CCC(N)=O)C(=O)O [Ac-Ala-Gln] (Ac-Ala-Gln-OH) | 21% | 20% | 31% | 27% |  |  |  |  |  |  |  |
| C[C@H](N)C(=O)N[C@@H](CCC(N)=O)C(=O)O [Ala-Gln, Alanine-Glutamine] (H-Ala-Gln-OH) | 0% | 0% | 0% | 0% | reduced the Clostridia XI group almost completely | extracted by skeletal muscle almost as well as from mixtures of alanine and glutamine | Synergistic positive effects | Synergistic positive effects |  |  |  |
| NC(=O)CC[C@H](N)C(=O)O [Gln, glutamine, reference compound] | 20% | 21% | 24% | 28% |  |  |  | Synergistic positive effects | reducing the Firmicutes to Bacteriodetes ratio | reduced mortality | Synergistic positive effects |
| N[C@@H](CCC(=O)O)C(=O)O [Glu, glutamic acid, reference compound] | 26% | 18% | 25% | 27% |  |  |  | Synergistic positive effects |  |  |  |
| NCC(=O)O.N[C@@H](CCC(=O)O)C(=O)O [Gly-Glu, Glycine-Glutamic acid] | 0% | 0% | 0% | 0% | reduced the Clostridia XI group almost completely |  | Synergistic positive effects | Synergistic positive effects |  |  |  |
